Laboratory results from ChEMBL document CHEMBL3885861, “Open TG-GATES”.

Species: Rattus norvegicus
Assay: Open TG-GATES - Regimen: Single
Assay type: toxicity, organism-based, Sprague-Dawley
Parameters: regimen Single, gender Male, age 6 weeks
Details: in vivo, po, route gavage; for APTT / Bas / Eos / Fbg / Hb / Ht / Lym / MCH / MCHC / MCV / Mono / Neu / PT / Plat / RBC / Ret / WBC: tissue Blood; for KIDNEY_L / KIDNEY_R / KIDNEY_TOTAL: tissue Kidney; for LIVER: tissue Liver; for ALP / ALT / AST / BUN / CRE / Ca / Cl / DBIL / GLC / IP / K / LDH / Na / PL / RALB / TBIL / TC / TP / gamma-GTP: tissue Plasma
[1] = 5 mg/kg, 3 h, dose level Middle
[2] = 5 mg/kg, 6 h, dose level Middle
[3] = 5 mg/kg, 9 h, dose level Middle
[4] = 5 mg/kg, 24 h, dose level Middle

## O=P1(N(CCCl)CCCl)NCCCO1 (stereo unspecified) [CYCLOPHOSPHAMIDE ANHYDROUS]
2 mg/kg, 24 h, dose level Low
  TERMINAL_BW: 197.9 g
  APTT: 22 s
  Bas: 0%
  Eos: 1%
  Fbg: 284.2 mg/dL
  Hb: 13.3 g/dL
  Ht: 39.7%
  Lym: 82%
  MCH: 21.1 pg
  MCHC: 33.5%
  MCV: 63 fL
  Mono: 2.2%
  Neu: 14.2%
  PT: 17 s
  Plat: 117.1 x10_4/uL
  RBC: 630.8 x10_4/ul
  Ret: 7%
  WBC: 74.3 x10_2/uL
  KIDNEY_L: 0.9 g
  KIDNEY_R: 0.9 g
  KIDNEY_TOTAL: 1.8 g
  LIVER: 9.1 g
  ALP: 1746.6 IU/L
  ALT: 44.6 IU/L
  AST: 72.8 IU/L
  BUN: 17.4 mg/dL
  CRE: 0.2 mg/dL
  Ca: 10.9 mg/dL
  Cl: 106 meq/L
  DBIL: 0 mg/dL
  GLC: 179.6 mg/dL
  IP: 7.5 mg/dL
  K: 4.5 meq/L
  LDH: 207.2 IU/L
  Na: 142.4 meq/L
  PL: 139.6 mg/dL
  RALB: 3 g/dL
  TBIL: 0.006 mg/dL
  TC: 70.6 mg/dL
  TP: 5.5 g/dL
  gamma-GTP: 0.8 IU/L
[1]
  TERMINAL_BW: 186.6 g
  APTT: 22.8 s
  Bas: 0%
  Eos: 0.8%
  Fbg: 290.2 mg/dL
  Hb: 12.9 g/dL
  Ht: 39%
  Lym: 83.6%
  MCH: 21.1 pg
  MCHC: 33.2%
  MCV: 63.7 fL
  Mono: 1.4%
  Neu: 13.6%
  PT: 15.6 s
  Plat: 113 x10_4/uL
  RBC: 611.6 x10_4/ul
  Ret: 8.1%
  WBC: 60.2 x10_2/uL
  KIDNEY_L: 0.8 g
  KIDNEY_R: 0.9 g
  KIDNEY_TOTAL: 1.7 g
  LIVER: 8.3 g
  ALP: 1552.4 IU/L
  ALT: 44.4 IU/L
  AST: 73.4 IU/L
  BUN: 11.2 mg/dL
  CRE: 0.1 mg/dL
  Ca: 10.6 mg/dL
  Cl: 106.4 meq/L
  DBIL: 0 mg/dL
  GLC: 180.6 mg/dL
  IP: 9 mg/dL
  K: 4 meq/L
  LDH: 175.2 IU/L
  Na: 143.8 meq/L
  PL: 137.6 mg/dL
  RALB: 3 g/dL
  TBIL: 0.034 mg/dL
  TC: 81.4 mg/dL
  TP: 5.4 g/dL
  gamma-GTP: 1 IU/L
[2]
  TERMINAL_BW: 189.8 g
  APTT: 22.5 s
  Bas: 0%
  Eos: 0.4%
  Fbg: 311.4 mg/dL
  Hb: 13.1 g/dL
  Ht: 39.4%
  Lym: 78%
  MCH: 21.1 pg
  MCHC: 33.2%
  MCV: 63.6 fL
  Mono: 2.8%
  Neu: 17.8%
  PT: 16.1 s
  Plat: 130.3 x10_4/uL
  RBC: 618.8 x10_4/ul
  Ret: 7.9%
  WBC: 86.9 x10_2/uL
  KIDNEY_L: 0.9 g
  KIDNEY_R: 0.9 g
  KIDNEY_TOTAL: 1.8 g
  LIVER: 8.4 g
  ALP: 1359.6 IU/L
  ALT: 39.6 IU/L
  AST: 66.8 IU/L
  BUN: 8.2 mg/dL
  CRE: 0.1 mg/dL
  Ca: 10.7 mg/dL
  Cl: 107.6 meq/L
  DBIL: 0 mg/dL
  GLC: 172 mg/dL
  IP: 9.5 mg/dL
  K: 4.1 meq/L
  LDH: 162.6 IU/L
  Na: 143.2 meq/L
  PL: 139.4 mg/dL
  RALB: 2.8 g/dL
  TBIL: 0.03 mg/dL
  TC: 77.8 mg/dL
  TP: 5.3 g/dL
  gamma-GTP: 1 IU/L
[3]
  TERMINAL_BW: 193 g
  APTT: 20.2 s
  Bas: 0%
  Eos: 1%
  Fbg: 309 mg/dL
  Hb: 12.6 g/dL
  Ht: 37.9%
  Lym: 71.6%
  MCH: 21.1 pg
  MCHC: 33.3%
  MCV: 63.3 fL
  Mono: 2.6%
  Neu: 24.4%
  PT: 16.3 s
  Plat: 115.7 x10_4/uL
  RBC: 599.6 x10_4/ul
  Ret: 8.6%
  WBC: 57.2 x10_2/uL
  KIDNEY_L: 0.9 g
  KIDNEY_R: 0.9 g
  KIDNEY_TOTAL: 1.8 g
  LIVER: 7.9 g
  ALP: 1360.2 IU/L
  ALT: 35.2 IU/L
  AST: 65.8 IU/L
  BUN: 9 mg/dL
  CRE: 0.1 mg/dL
  Ca: 10.5 mg/dL
  Cl: 106.6 meq/L
  DBIL: 0.002 mg/dL
  GLC: 179.4 mg/dL
  IP: 9.7 mg/dL
  K: 4 meq/L
  LDH: 146.8 IU/L
  Na: 143.6 meq/L
  PL: 129.8 mg/dL
  RALB: 3 g/dL
  TBIL: 0.042 mg/dL
  TC: 76.8 mg/dL
  TP: 5.5 g/dL
  gamma-GTP: 1 IU/L
[4]
  TERMINAL_BW: 203.3 g
  APTT: 22.1 s
  Bas: 0%
  Eos: 1%
  Fbg: 307.6 mg/dL
  Hb: 12.8 g/dL
  Ht: 38.5%
  Lym: 88.4%
  MCH: 21.4 pg
  MCHC: 33.3%
  MCV: 64.1 fL
  Mono: 1.6%
  Neu: 8%
  PT: 16.2 s
  Plat: 134.5 x10_4/uL
  RBC: 600.4 x10_4/ul
  Ret: 7.3%
  WBC: 58.1 x10_2/uL
  KIDNEY_L: 0.9 g
  KIDNEY_R: 0.9 g
  KIDNEY_TOTAL: 1.9 g
  LIVER: 9.4 g
  ALP: 1835.8 IU/L
  ALT: 48.6 IU/L
  AST: 73.2 IU/L
  BUN: 15.4 mg/dL
  CRE: 0.2 mg/dL
  Ca: 10.7 mg/dL
  Cl: 105.2 meq/L
  DBIL: 0.002 mg/dL
  GLC: 180.2 mg/dL
  IP: 8 mg/dL
  K: 4.2 meq/L
  LDH: 156.8 IU/L
  Na: 142.8 meq/L
  PL: 148.4 mg/dL
  RALB: 3 g/dL
  TBIL: 0.014 mg/dL
  TC: 76.2 mg/dL
  TP: 5.5 g/dL
  gamma-GTP: 1 IU/L
15 mg/kg, 3 h, dose level High
  TERMINAL_BW: 195.2 g
  APTT: 21.4 s
  Bas: 0%
  Eos: 0.8%
  Fbg: 291.2 mg/dL
  Hb: 13 g/dL
  Ht: 38.9%
  Lym: 76.2%
  MCH: 21.2 pg
  MCHC: 33.4%
  MCV: 63.4 fL
  Mono: 1.8%
  Neu: 20.2%
  PT: 15.6 s
  Plat: 120 x10_4/uL
  RBC: 613.8 x10_4/ul
  Ret: 8.2%
  WBC: 75.9 x10_2/uL
  KIDNEY_L: 0.9 g
  KIDNEY_R: 0.9 g
  KIDNEY_TOTAL: 1.7 g
  LIVER: 9 g
  ALP: 1506.2 IU/L
  ALT: 38.8 IU/L
  AST: 70.6 IU/L
  BUN: 11 mg/dL
  CRE: 0.1 mg/dL
  Ca: 10.7 mg/dL
  Cl: 105.6 meq/L
  DBIL: 0 mg/dL
  GLC: 179.4 mg/dL
  IP: 9.1 mg/dL
  K: 4.1 meq/L
  LDH: 197.8 IU/L
  Na: 142.6 meq/L
  PL: 136 mg/dL
  RALB: 2.9 g/dL
  TBIL: 0.032 mg/dL
  TC: 71.8 mg/dL
  TP: 5.3 g/dL
  gamma-GTP: 1 IU/L
15 mg/kg, 3 h, dose level Low
  TERMINAL_BW: 191.1 g
  APTT: 16.4 s
  Fbg: 273.4 mg/dL
  Hb: 12.8 g/dL
  Ht: 38.1%
  Lym: 81.6%
  MCH: 21 pg
  MCHC: 33.5%
  MCV: 62.8 fL
  Mono: 2.8%
  Neu: 14.2%
  PT: 13.8 s
  Plat: 112.1 x10_4/uL
  RBC: 608.2 x10_4/ul
  Ret: 8.6%
  WBC: 94.2 x10_2/uL
  KIDNEY_L: 0.8 g
  KIDNEY_R: 0.8 g
  KIDNEY_TOTAL: 1.6 g
  LIVER: 8.5 g
  ALP: 1407.8 IU/L
  ALT: 39 IU/L
  AST: 74.2 IU/L
  BUN: 10.2 mg/dL
  CRE: 0.2 mg/dL
  Ca: 10.9 mg/dL
  DBIL: 0.014 mg/dL
  GLC: 173.8 mg/dL
  IP: 8.1 mg/dL
  K: 4.4 meq/L
  LDH: 64 IU/L
  Na: 141.2 meq/L
  PL: 136.4 mg/dL
  RALB: 2.4 g/dL
  TBIL: 0.056 mg/dL
